# Activity calls are given as the source filed them. The rule behind the calls is not given here.
# Experiments:
# Mus musculus [1] = experiment: Anti-obesity activity in high-fat and high-cholesterol diet induced C57BL/6J mouse assessed as reduction in triglyceride level at 20 mg/kg, ip administered every day for 6 weeks; assay type: functional, organism-based
# 3T3-L1 [2] = experiment: Anti-adipogenic activity against mouse 3T3-L1 cells assessed as change in phosphorylated AMPK alpha level; assay type: functional, cell-based
# [3] = Cmax in Sprague-Dawley rat at 20 mg/kg, po administered for 24 hrs by LC-MS/MS analysis; assay type: ADME, organism-based; details: in vivo
# Mus musculus [4] = experiment: Anti-obesity activity in high-fat and high-cholesterol diet induced C57BL/6J mouse model assessed as reduction in body weight at 20 mg/kg, ip administered every day for 6 weeks and measured daily relative to control; assay type: functional; parameters: scale not given: the % may be the effect or the level left
# [5] = Apparent volume of distribution during terminal phase in Sprague-Dawley rat at 2 mg/kg, iv administered for 24 hrs by LC-MS/MS analysis; assay type: ADME, organism-based; details: in vivo
# [6] = MRT (0 to t) in Sprague-Dawley rat at 2 mg/kg, iv administered for 24 hrs by LC-MS/MS analysis; assay type: ADME, organism-based; details: in vivo
# 3T3-L1 [7] = experiment: Anti-adipogenic activity against mouse 3T3-L1 cells assessed as decrease in Acc mRNA expression at 0.2 to 0.8 uM incubated for 3 days by RT-PCR analysis; assay type: functional, cell-based; details: dose 0.2-0.8 µM, time 3.0 day
# [8] = Oral bioavailability (0 to infinity) in Sprague-Dawley rat at 20 mg/kg administered for 24 hrs by LC-MS/MS analysis; assay type: ADME, organism-based; details: in vivo
# [9] = Apparent oral clearance in Sprague-Dawley rat at 20 mg/kg, po administered for 24 hrs by LC-MS/MS analysis; assay type: ADME, organism-based; details: in vivo
# [10] = MRT (0 to t) in Sprague-Dawley rat at 20 mg/kg, po administered for 24 hrs by LC-MS/MS analysis; assay type: ADME, organism-based; details: in vivo
# Mus musculus [11] = experiment: Anti-obesity activity in high-fat and high-cholesterol diet induced C57BL/6J mouse assessed as reduction in liver damage by measuring reduction in alkaline phosphatase level in serum at 20 mg/kg, ip administered every day for 6 weeks; assay type: functional, organism-based
# 3T3-L1 [12] = experiment: Anti-adipogenic activity against mouse 3T3-L1 cells assessed as increase in Mcad mRNA expression at 0.2 to 0.8 uM incubated for 3 days by RT-PCR analysis; assay type: functional, cell-based; details: dose 0.2-0.8 µM, time 3.0 day
# [13] = Half life in Sprague-Dawley rat at 2 mg/kg, iv administered for 24 hrs by LC-MS/MS analysis; assay type: ADME, organism-based; details: in vivo
# [14] = Oral bioavailability (0 to t) in Sprague-Dawley rat at 20 mg/kg administered for 24 hrs by LC-MS/MS analysis; assay type: ADME, organism-based; details: in vivo
# 3T3-L1 [15] = experiment: Anti-adipogenic activity against mouse 3T3-L1 cells assessed as decrease in PPAR gamma mRNA expression at 0.2 to 0.8 uM incubated for 3 days by RT-PCR analysis; assay type: functional, cell-based; details: dose 0.2-0.8 µM, time 3.0 day
# Mus musculus [16] = experiment: Anti-obesity activity in high-fat and high-cholesterol diet induced C57BL/6J mouse assessed as attenuation of insulin resistance at 20 mg/kg, ip measured after 5 weeks by ITT analysis; assay type: functional, organism-based
# 3T3-L1 [17] = experiment: Anti-adipogenic activity against mouse 3T3-L1 cells assessed as increase in Cpt1 alpha mRNA expression at 0.2 to 0.8 uM incubated for 3 days by RT-PCR analysis; assay type: functional, cell-based; details: dose 0.2-0.8 µM, time 3.0 day
# 3T3-L1 [18] = experiment: Anti-adipogenic activity in mouse 3T3-L1 cells assessed as lipid-lowering activity measured after 9 days by Oil Red O staining based microplate reader analysis; assay type: functional, cell-based; details: 3T3-L1, 216 h
# Mus musculus [19] = experiment: Inhibition of lipid synthesis in high-fat and high-cholesterol diet induced C57BL/6J mouse assessed as downregulation of ACC protein expression at 20 mg/kg, ip administered for 6 weeks by Western blotting analysis; assay type: functional, organism-based
# 3T3-L1 [20] = experiment: Anti-adipogenic activity against mouse 3T3-L1 cells assessed as decrease in Scd1 mRNA expression at 0.2 to 0.8 uM incubated for 3 days by RT-PCR analysis; assay type: functional, cell-based; details: dose 0.2-0.8 µM, time 3.0 day
# Mus musculus [21] = experiment: Anti-obesity activity in high-fat and high-cholesterol diet induced C57BL/6J mouse assessed as improvement in glucose tolerance at 20 mg/kg, ip measured after 3 weeks by GTT analysis; assay type: functional, organism-based
# [22] = Tmax in Sprague-Dawley rat at 20 mg/kg, po administered for 24 hrs by LC-MS/MS analysis; assay type: ADME, organism-based; details: in vivo
# 3T3-L1 [23] = experiment: Anti-adipogenic activity against mouse 3T3-L1 cells assessed as decrease in Fasn mRNA expression at 0.2 to 0.8 uM incubated for 3 days by RT-PCR analysis; assay type: functional, cell-based; details: dose 0.2-0.8 µM, time 3.0 day
# Mus musculus [24] = experiment: Anti-obesity activity in high-fat and high-cholesterol diet induced C57BL/6J mouse assessed as reduction in liver damage by measuring reduction in cholinesterase level in serum at 20 mg/kg, ip administered every day for 6 weeks; assay type: functional, organism-based
# Mus musculus [25] = experiment: Inhibition of lipid synthesis in high-fat and high-cholesterol diet induced C57BL/6J mouse assessed as downregulation of FASN protein expression at 20 mg/kg, ip administered for 6 weeks by Western blotting analysis; assay type: functional, organism-based
# Mus musculus [26] = experiment: Inhibition of lipid synthesis in high-fat and high-cholesterol diet induced C57BL/6J mouse assessed as downregulation of ACLY protein expression at 20 mg/kg, ip administered for 6 weeks by Western blotting analysis; assay type: functional, organism-based
# [27] = AUC (0 to infinity) in Sprague-Dawley rat at 20 mg/kg, po administered for 24 hrs by LC-MS/MS analysis; assay type: ADME, organism-based; details: in vivo
# 3T3-L1 [28] = experiment: Anti-adipogenic activity in mouse 3T3-L1 cells assessed as lipid-lowering activity during the adipogenesis stage at 0.2 to 1.0 uM measured after 0 to 3 days; assay type: functional, cell-based; details: dose 0.2-1 µM, time 0-3 day
# 3T3-L1 [29] = experiment: Anti-adipogenic activity against mouse 3T3-L1 cells assessed as decrease in Elovl6 mRNA expression at 0.2 to 0.8 uM incubated for 3 days by RT-PCR analysis; assay type: functional, cell-based; details: dose 0.2-0.8 µM, time 3.0 day
# [30] = Cytotoxicity against mouse 3T3-L1 cells assessed as reduction in cell viability incubated for 24 hrs by Sulforhodamine B assay; assay type: toxicity, cell-based
# Mus musculus [31] = experiment: Inhibition of lipid synthesis in high-fat and high-cholesterol diet induced C57BL/6J mouse assessed as downregulation of FABP4 protein expression at 20 mg/kg, ip administered for 6 weeks by Western blotting analysis; assay type: functional, organism-based
# Mus musculus [32] = experiment: Anti-obesity activity in high-fat and high-cholesterol diet induced C57BL/6J mouse assessed as reduction in fat mass at 20 mg/kg, ip administered every day for 6 weeks; assay type: functional, organism-based
# Mus musculus [33] = experiment: Anti-obesity activity in high-fat and high-cholesterol diet induced C57BL/6J mouse assessed as reduction in LDL-c level at 20 mg/kg, ip administered every day for 6 weeks; assay type: functional, organism-based
# Adipocyte = experiment: Anti-adipogenic activity against mouse […] Adipocytes assessed as lipid-lowering activity by Oil Red O staining based microplate reader analysis; assay type: functional, cell-based
# [34] = AUC (0 to infinity) in Sprague-Dawley rat at 2 mg/kg, iv administered for 24 hrs by LC-MS/MS analysis; assay type: ADME, organism-based; details: in vivo
# 3T3-L1 [35] = experiment: Anti-adipogenic activity against mouse 3T3-L1 cells assessed as decrease in ATP citrate lyase mRNA expression at 0.2 to 0.8 uM incubated for 3 days by RT-PCR analysis; assay type: functional, cell-based; details: dose 0.2-0.8 µM, time 3.0 day
# Mus musculus [36] = experiment: Anti-obesity activity in high-fat and high-cholesterol diet induced C57BL/6J mouse assessed as attenuation of inflammation in liver at 20 mg/kg, ip administered everyday for 6 weeks by hematoxylin and eosin staining based microscopic analysis; assay type: functional, organism-based
compound,measurement,setting,value
CC(=O)c1c(-c2nccc(NCCN3CCCC3)n2)[nH]c2ccccc12,Activity,Mus musculus [1],Active
same,Activity,3T3-L1 [2],inactive
same,Cmax,[3],168 ng/mL
same,Activity,Mus musculus [4],17.4%
same,Vz/F,[5],24.4 L/kg
same,MRT last at 24 h,[6],1.6 h
same,Activity,3T3-L1 [7],Active
same,bioavailability,[8],65.5%
same,CL/F,[9],255 mL/min/kg
same,MRT last at 24 h,[10],5.2 h
same,Activity,Mus musculus [11],Active
same,Activity,3T3-L1 [12],Active
same,half-life,[13],1.9 h
same,bioavailability,[14],63%
same,Activity,3T3-L1 [15],Active
same,Activity,Mus musculus [16],Active
same,Activity,3T3-L1 [17],Active
same,EC50,3T3-L1 [18],106 nM
same,inhibition,Mus musculus [19],Active
same,Activity,3T3-L1 [20],Active
same,Activity,Mus musculus [21],Active
same,Tmax,[22],2.8 h
same,Activity,3T3-L1 [23],Active
same,Activity,Mus musculus [24],Active
same,inhibition,Mus musculus [25],Active
same,inhibition,Mus musculus [26],Active
same,AUC(0-inf),[27],1470 ng·h/mL
same,Activity,3T3-L1 [28],Active
same,Activity,3T3-L1 [29],Active
same,IC50 at 24 h,[30],27000 nM
same,inhibition,Mus musculus [31],Active
same,Activity,Mus musculus [32],Active
same,Activity,Mus musculus [33],Active
same,EC50,Adipocyte,289 nM
same,AUC(0-inf),[34],225 ng·h/mL
same,Activity,3T3-L1 [35],Active
same,Activity,Mus musculus [36],Active
